The values below come from patent publication EP4461731A1, “LIGANDS OF THE M6A-RNA READERS” (Universität Zürich, priority 2023, dated 2024).

Read-outs that look alike come from different tables or passages of the source. Some results are limits rather than exact numbers.

The GI50 is the concentration giving 50% growth inhibition.

The subject of assay [1] is Cells. Put plainly: cells. Particulars: 72 h.
Assay [2] deals with Cells. Particulars: read-out: Antiprolif. activity GI50; 72 h, CellTiter-Glo; cell line not named.
Where [3] appears, read: read-out: Antiprolif. activity GI50.
Setting [4] is: read-out: Antiprolif. activity GI50, 72 h, CellTiter-Glo, cell line not named.

Take `CNc1nc(Cl)nc2c1ncn2Cc1ccc(OC)c(Cl)c1` [FE150, 2-chloro-9-(3-chloro-4-methoxybenzyl)-N-methyl-9H-purin-6-amine]: the 50% growth inhibitory concentration (GI50) in assay [1] (setting [3]) is no more than 10 µM. Take `CNc1nc(Cl)nc2c1ncn2Cc1ccc(C(=O)OC)cc1` [ZA311, Methyl 4-((2-chloro-6-(methylamino)-9H-purin-9-yl)methyl)benzoate]: the GI50 in assay [1] (setting [3]) is no more than 10 µM.

As to `CNc1nc(Cl)nc2c1ncn2Cc1cccc(C(=O)OC)c1` [ZA347, Methyl 3-((2-chloro-6-(methylamino)-9H-purin-9-yl)methyl)benzoate], the GI50 in assay [1] (setting [4]) was no more than 10 µM. With `CNc1nc(Cl)nc2c1ncn2Cc1cccc(Cl)c1` [ZA349, 2-chloro-9-(3-chlorobenzyl)-N-methyl-9H-purin-6-amine], in assay [1] (setting [3]), the GI50 was no more than 10 µM. As for `CNc1nc(Cl)nc2c1ncn2Cc1ccccc1NS(C)(=O)=O` [ZA364, N-(2-((2-chloro-6-(methylamino)-9H-purin-9-yl)methyl)phenyl)methanesulfonamide], in assay [1] (setting [4]), the GI50 came out at 21 µM. `CNc1nc(Cl)nc2c1ncn2Cc1cc(Cl)ccc1NS(C)(=O)=O` [ZA400, N-(4-chloro-2-((2-chloro-6-(methylamino)-9H-purin-9-yl)methyl)phenyl) methanesulfonamide]: the figures for the GI50 in assay [2] and in assay [1] (setting [4]) were 21 µM and 31 µM, respectively.
